The values below are quoted from earlier work in patent US20070043054A1, “Enzyme cofactor combination for supplementing pyruvate dehydrogenase and alpha ketogluterate dehydrogenase complexes” (priority 2004, published 2007).

For data set [1] the following is noted: for stability in aqueous solution: neutral or alkaline solutions.

Turning to `NC(=O)c1cccnc1` [Niacinamide], the solubility in water entry is “soluble in water and ethanol”. In addition, the “stability in aqueous solution” value in data set [1] was “stable for a short period when autoclaved”.
`Cc1cc2nc3c(=O)[nH]c(=O)nc-3n(C[C@H](O)[C@H](O)[C@H](O)CO)c2cc1C` [Riboflavin]: the solubility in water entry is “very slightly soluble in water”. Further, the solubility in alkali result (alkali) is “soluble in alkali”. For the same compound, the “solubility in organic solvents” value (organic solvents) is “insoluble in most organic solvents”. In addition, in data set [1], the “stability in aqueous solution” value is “stable to oxidizing agents in strong mineral acids and in neutral aqueous solution”; the “stability to dry heat” value is listed as “stable to dry heat”.
In the case of `Cc1ncc(C[n+]2csc(CCO)c2C)c(N)n1` [Thiamine], the solubility in water entry is reported as “water-soluble”. Besides, in data set [1], the “stability in aqueous solution” value is recorded as “rapidly broken down in neutral or alkaline solutions” and the “stability to dry heat” value is on record as “comparatively stable to dry heat”.
Take `O=C(O)c1cccnc1` [niacin]: in data set [1] (dry form), the “temperature up to which the dry form is stable” value is “about 60 °C”.
